Here are results for one compound from US8101760B2, “Glucocorticoid receptor modulator and methods of use” (Eli Lilly and Company, priority 2007, dated 2012).

Where two headings read alike, the source gives them in different places.

The experiment deals with carrageenan-induced paw edema. Briefly: Carrageenan-induced paw edema (CPE) model. Format: in vivo, rat. The conditions noted are these: for ED50: rat, oral gavage 2 h before carrageenan, 3 h after injection, mean of 5. The text has this:
Carrageenans are a group of polysaccharides which can induce an acute inflammatory response in animals. Cardinal signs of inflammation including edema, hyperalgesia and erythema are developed in the injection site immediately following injection. The CPE model (Winter et al., Proc. Soc. Exp. Biol. Med. 111, 544-547, 1962) is a recognized model of inflammation and can be used to evaluate the antinflammatory effects of glucocorticoid receptor ligands.
To evaluate the anti-inflammatory effects of Compound (I), the Compound (I) is formulated in a vehicle comprising 0.5% carboxymethyl cellulose and 0.25% Tween 80 then administered orally via gavage to male Sprague-Dawley rats (180-200 g) (Harlan Industries, Indianapolis, Ind.). For comparison, prednisolone is administered orally in the same vehicle. Two hours later, 1% carrageenan in 50 μL of 0.9% pyrogen free saline is injected into the subplantar regions of the right hind paw. Rats are euthanized by CO2 at 3 hours after the carrageenan injection. Paws are removed then weighed using a microbalance. Paws are then immediately immersed into liquid nitrogen until frozen. Frozen paws are dissected by making several cuts on the paw surface then centrifuged to extract the exudates. Exudate levels of IL-1β, a cytokine generated during the inflammatory response, is then measured by ELISA (R&D Systems, Inc., Catalog No. RLB00) using standard techniques. Total paw protein is also measured using a protein assay kit (Pierce Biotechnology, Inc., Rockford, Ill., U.S.A., Catalog No. 1856210) and the absolute level of IL-1β is normalized to yield a concentration value of ng IL-1β/mg total protein.

Turning to `C[C@]12C=CC(=O)C=C1CC[C@@H]1[C@@H]2[C@@H](O)C[C@@]2(C)[C@H]1CC[C@]2(O)C(=O)CO` [prednisolone, reference compound], under “rat CPE model, similar conditions”, the “potency relative to Compound (I) (fold less potent)” value was “about 5 fold”. The ED50 is around 6.6 mg/kg (read-out: ED50, inhibition of carrageenan induced paw weight gain) and below 1 mg/kg (read-out: ED50, reduction of paw exudate levels of IL-1β).
